The values that follow come from ChEMBL document CHEMBL5154674, “ARN25068, a versatile starting point towards triple GSK-3β/FYN/DYRK1A inhibitors to tackle tau-related neurological disorders” (Eur J Med Chem, 2022).

The series has as its system U2OS. The series can be described thus: Cytotoxic effect on human U2OS cells transfected with Tau0N4R-TM-tGFP at 25 to 100 uM by fluorescence based microscopy. The class given is toxicity, cell-based. As to conditions: dose 25-100 µM.

With `c1ccc(CNc2nc(Nc3cc(C4CC4)[nH]n3)c3sccc3n2)cc1`, the Activity result was “Toxic”.
